Columns and labels:
Assay type in all cases: in vivo
[1] = system: Barnyardgrass; assay: pre-emergence herbicide test; conditions: 0.25 lb/A; for inhibition at 280.212 g/ha: Echinochloa crus-galli, pre-emergence, read-out: % plant inhibition
Method in brief: (§1)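 Known amounts of active ingredient went into the cover soil over seeds sown in pans, either before or after the layer was spread. An initial 1/4 inch overhead irrigation was given in some cases; otherwise pans were subirrigated. Rating was % inhibition at ~14 days.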

[2] = system: Bedstraw Catchweed; assay: pre-emergence herbicide test; conditions: 0.25 lb/A; for inhibition at 280.212 g/ha: Galium aparine, pre-emergence, read-out: % plant inhibition
Method in brief: as §1

[3] = system: Birdseye Speedwell; assay: pre-emergence herbicide test; conditions: 0.25 lb/A; for inhibition at 280.212 g/ha: pre-emergence, read-out: % plant inhibition
Method in brief: as §1

[4] = system: Blackgrass; assay: pre-emergence herbicide test; conditions: 0.25 lb/A; for inhibition at 280.212 g/ha: Alopecurus myosuroides, pre-emergence, read-out: % plant inhibition
Method in brief: as §1

[5] = system: Cocklebur; assay: pre-emergence herbicide test; conditions: 0.25 lb/A; for inhibition at 280.212 g/ha: Xanthium strumarium, pre-emergence, read-out: % plant inhibition
Method in brief: as §1

[6] = system: Common Chickweed; assay: pre-emergence herbicide test; conditions: 0.25 lb/A; for inhibition at 280.212 g/ha: pre-emergence, read-out: % plant inhibition
Method in brief: as §1

[7] = system: Corn; assay: pre-emergence herbicide test; conditions: 0.25 lb/A; for inhibition at 280.212 g/ha: Zea mays, pre-emergence, read-out: % plant inhibition
Method in brief: as §1

[8] = system: Downy Brome; assay: pre-emergence herbicide test; conditions: 0.25 lb/A; for inhibition at 280.212 g/ha: Bromus tectorum, pre-emergence, read-out: % plant inhibition
Method in brief: as §1

[9] = system: Giant Foxtail; assay: pre-emergence herbicide test; conditions: 0.25 lb/A; for inhibition at 280.212 g/ha: Setaria faberi, pre-emergence, read-out: % plant inhibition
Method in brief: as §1

[10] = system: Green Foxtail; assay: pre-emergence herbicide test; conditions: 0.25 lb/A; for inhibition at 280.212 g/ha: Setaria viridis, pre-emergence, read-out: % plant inhibition
Method in brief: as §1

[11] = system: Morning Glory; assay: pre-emergence herbicide test; conditions: 0.25 lb/A; for inhibition at 280.212 g/ha: Ipomoea, pre-emergence, read-out: % plant inhibition
Method in brief: as §1

[12] = system: Rape; assay: pre-emergence herbicide test; conditions: 0.25 lb/A; for inhibition at 280.212 g/ha: pre-emergence, read-out: % plant inhibition
Method in brief: as §1

[13] = system: Seedling Johnsongrass; assay: pre-emergence herbicide test; conditions: 0.25 lb/A; for inhibition at 280.212 g/ha: Sorghum halepense, pre-emergence, read-out: % plant inhibition
Method in brief: as §1

[14] = system: Soybean; assay: pre-emergence herbicide test; conditions: 0.25 lb/A; for inhibition at 280.212 g/ha: Glycine max, pre-emergence, read-out: % plant inhibition
Method in brief: as §1

[15] = system: Velvetleaf; assay: pre-emergence herbicide test; conditions: 0.25 lb/A; for inhibition at 280.212 g/ha: Abutilon theophrasti, pre-emergence, read-out: % plant inhibition
Method in brief: as §1

[16] = system: Wheat; assay: pre-emergence herbicide test; conditions: 0.25 lb/A; for inhibition at 280.212 g/ha: Triticum aestivum, pre-emergence, read-out: % plant inhibition
Method in brief: as §1

[17] = system: Wild Oats; assay: pre-emergence herbicide test; conditions: 0.25 lb/A; for inhibition at 280.212 g/ha: Avena fatua, pre-emergence, read-out: % plant inhibition
Method in brief: as §1

[18] = system: Barnyardgrass; assay: post-emergence herbicide test; conditions: 0.25 lb/A; for inhibition at 280.212 g/ha: Echinochloa crus-galli, post-emergence, read-out: % plant inhibition
Method in brief: (§2)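 Plants grown in greenhouse soil pans for two to three weeks were sprayed with compound in about 0.4% v/v emulsifier at 170.3 kPa and 1870 L/Ha, at the stated application rates. Activity was scored as percent inhibition of each species.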

[19] = system: Bedstraw Catchweed; assay: post-emergence herbicide test; conditions: 0.25 lb/A; for inhibition at 280.212 g/ha: Galium aparine, post-emergence, read-out: % plant inhibition
Method in brief: as §2

[20] = system: Birdseye Speedwell; assay: post-emergence herbicide test; conditions: 0.25 lb/A; for inhibition at 280.212 g/ha: post-emergence, read-out: % plant inhibition
Method in brief: as §2

[21] = system: Blackgrass; assay: post-emergence herbicide test; conditions: 0.25 lb/A; for inhibition at 280.212 g/ha: Alopecurus myosuroides, post-emergence, read-out: % plant inhibition
Method in brief: as §2

[22] = system: Cocklebur; assay: post-emergence herbicide test; conditions: 0.25 lb/A; for inhibition at 280.212 g/ha: Xanthium strumarium, post-emergence, read-out: % plant inhibition
Method in brief: as §2

[23] = system: Common Chickweed; assay: post-emergence herbicide test; conditions: 0.25 lb/A; for inhibition at 280.212 g/ha: post-emergence, read-out: % plant inhibition
Method in brief: as §2

[24] = system: Corn; assay: post-emergence herbicide test; conditions: 0.25 lb/A; for inhibition at 280.212 g/ha: Zea mays, post-emergence, read-out: % plant inhibition
Method in brief: as §2

[25] = system: Downy Brome; assay: post-emergence herbicide test; conditions: 0.25 lb/A; for inhibition at 280.212 g/ha: Bromus tectorum, post-emergence, read-out: % plant inhibition
Method in brief: as §2

[26] = system: Giant Foxtail; assay: post-emergence herbicide test; conditions: 0.25 lb/A; for inhibition at 280.212 g/ha: Setaria faberi, post-emergence, read-out: % plant inhibition
Method in brief: as §2

[27] = system: Green Foxtail; assay: post-emergence herbicide test; conditions: 0.25 lb/A; for inhibition at 280.212 g/ha: Setaria viridis, post-emergence, read-out: % plant inhibition
Method in brief: as §2

[28] = system: Morning Glory; assay: post-emergence herbicide test; conditions: 0.25 lb/A; for inhibition at 280.212 g/ha: Ipomoea, post-emergence, read-out: % plant inhibition
Method in brief: as §2

[29] = system: Rape; assay: post-emergence herbicide test; conditions: 0.25 lb/A; for inhibition at 280.212 g/ha: post-emergence, read-out: % plant inhibition
Method in brief: as §2

[30] = system: Seedling Johnsongrass; assay: post-emergence herbicide test; conditions: 0.25 lb/A; for inhibition at 280.212 g/ha: Sorghum halepense, post-emergence, read-out: % plant inhibition
Method in brief: as §2

[31] = system: Soybean; assay: post-emergence herbicide test; conditions: 0.25 lb/A; for inhibition at 280.212 g/ha: Glycine max, post-emergence, read-out: % plant inhibition
Method in brief: as §2

[32] = system: Velvetleaf; assay: post-emergence herbicide test; conditions: 0.25 lb/A; for inhibition at 280.212 g/ha: Abutilon theophrasti, post-emergence, read-out: % plant inhibition
Method in brief: as §2

[33] = system: Wheat; assay: post-emergence herbicide test; conditions: 0.25 lb/A; for inhibition at 280.212 g/ha: Triticum aestivum, post-emergence, read-out: % plant inhibition
Method in brief: as §2

[34] = system: Wild Oats; assay: post-emergence herbicide test; conditions: 0.25 lb/A; for inhibition at 280.212 g/ha: Avena fatua, post-emergence, read-out: % plant inhibition
Method in brief: as §2

Cc1c(-c2cc(C(=O)OCCC(C)C)c(Cl)cc2F)nn(C)c1C(F)(F)F [Compound 55]
% plant inhibition [1]: 30% | % plant inhibition [2]: 85% | % plant inhibition [3]: 100% | % plant inhibition [4]: 60% | % plant inhibition [5]: 30% | % plant inhibition [6]: 75% | % plant inhibition [7]: 0% | % plant inhibition [8]: 55% | % plant inhibition [9]: 100% | % plant inhibition [10]: 100% | % plant inhibition [11]: 10% | % plant inhibition [12]: 5% | % plant inhibition [13]: 95% | % plant inhibition [14]: 0% | % plant inhibition [15]: 85% | % plant inhibition [16]: 0% | % plant inhibition [17]: 35% | % plant inhibition [18]: 45% | % plant inhibition [19]: 75% | % plant inhibition [20]: 95% | % plant inhibition [21]: 20% | % plant inhibition [22]: 90% | % plant inhibition [23]: 70% | % plant inhibition [24]: 20% | % plant inhibition [25]: 20% | % plant inhibition [26]: 35% | % plant inhibition [27]: 65% | % plant inhibition [28]: 85% | % plant inhibition [29]: 15% | % plant inhibition [30]: 70% | % plant inhibition [31]: 20% | % plant inhibition [32]: 99% | % plant inhibition [33]: 10% | % plant inhibition [34]: 30%

COCCOC(=O)c1cc(-c2nn(C)c(C(F)(F)F)c2C)c(F)cc1Cl [Compound 56]
inhibition at 280.212 g/ha [1]: 100% | inhibition at 280.212 g/ha [2]: 90% | inhibition at 280.212 g/ha [3]: 100% | inhibition at 280.212 g/ha [4]: 75% | inhibition at 280.212 g/ha [5]: 20% | inhibition at 280.212 g/ha [6]: 95% | inhibition at 280.212 g/ha [7]: 0% | inhibition at 280.212 g/ha [8]: 100% | inhibition at 280.212 g/ha [9]: 90% | inhibition at 280.212 g/ha [10]: 100% | inhibition at 280.212 g/ha [11]: 80% | inhibition at 280.212 g/ha [12]: 5% | inhibition at 280.212 g/ha [13]: 50% | inhibition at 280.212 g/ha [14]: 0% | inhibition at 280.212 g/ha [15]: 100% | inhibition at 280.212 g/ha [16]: 5% | inhibition at 280.212 g/ha [17]: 55% | inhibition at 280.212 g/ha [18]: 50% | inhibition at 280.212 g/ha [19]: 98% | inhibition at 280.212 g/ha [20]: 100% | inhibition at 280.212 g/ha [21]: 60% | inhibition at 280.212 g/ha [22]: 99% | inhibition at 280.212 g/ha [23]: 90% | inhibition at 280.212 g/ha [24]: 35% | inhibition at 280.212 g/ha [25]: 85% | inhibition at 280.212 g/ha [26]: 100% | inhibition at 280.212 g/ha [27]: 98% | inhibition at 280.212 g/ha [28]: 80% | inhibition at 280.212 g/ha [29]: 98% | inhibition at 280.212 g/ha [30]: 95% | inhibition at 280.212 g/ha [31]: 90% | inhibition at 280.212 g/ha [32]: 100% | inhibition at 280.212 g/ha [33]: 16% | inhibition at 280.212 g/ha [34]: 80%

Cc1c(-c2cc(C(=O)OCc3ccco3)c(Cl)cc2F)nn(C)c1C(F)(F)F [Compound 57]
inhibition at 280.212 g/ha [1]: 50% | inhibition at 280.212 g/ha [2]: 80% | inhibition at 280.212 g/ha [3]: 60% | inhibition at 280.212 g/ha [4]: 15% | inhibition at 280.212 g/ha [5]: 10% | inhibition at 280.212 g/ha [6]: 20% | inhibition at 280.212 g/ha [7]: 0% | inhibition at 280.212 g/ha [8]: 20% | inhibition at 280.212 g/ha [9]: 10% | inhibition at 280.212 g/ha [10]: 85% | inhibition at 280.212 g/ha [11]: 90% | inhibition at 280.212 g/ha [12]: 0% | inhibition at 280.212 g/ha [13]: 15% | inhibition at 280.212 g/ha [14]: 0% | inhibition at 280.212 g/ha [15]: 90% | inhibition at 280.212 g/ha [16]: 0% | inhibition at 280.212 g/ha [17]: 5% | inhibition at 280.212 g/ha [18]: 35% | inhibition at 280.212 g/ha [19]: 40% | inhibition at 280.212 g/ha [20]: 100% | inhibition at 280.212 g/ha [21]: 15% | inhibition at 280.212 g/ha [22]: 85% | inhibition at 280.212 g/ha [23]: 55% | inhibition at 280.212 g/ha [24]: 3% | inhibition at 280.212 g/ha [25]: 15% | inhibition at 280.212 g/ha [26]: 15% | inhibition at 280.212 g/ha [27]: 40% | inhibition at 280.212 g/ha [28]: 50% | inhibition at 280.212 g/ha [29]: 15% | inhibition at 280.212 g/ha [30]: 35% | inhibition at 280.212 g/ha [31]: 17% | inhibition at 280.212 g/ha [32]: 100% | inhibition at 280.212 g/ha [33]: 8% | inhibition at 280.212 g/ha [34]: 25%

Reference: patent publication US5672715A, “Herbicidal substituted 3-aryl-pyrazoles” (Monsanto Company, priority 1995, dated 1997)
